Laboratory results from article PMC2063102 (British Journal of Cancer, 1998).
“And” between values parts separate entries of the source, which are not always exact repeats. Equal values may be shown once.

Columns and labels:
Format in all cases: in vivo, C3H/HeN mice
[1] = tested on: MDAH-MCa-4 tumours; assay: Tumour necrosis / residual viable tissue scored histologically (H&E sections)
[2] = tested on: MDAH-MCa-4 tumours; assay: Tumour growth delay (time to reach 13 mm, treated minus control)
[3] = tested on: MDAH-MCa-4 tumours; assay: Tumour blood flow by 99mTc pertechnetate wash-out (clearance rate constant k); details: for time course of tumour blood flow inhibition: agent alone: 5-HT 700 µmol kg-1, DMXAA 70 µmol kg-1

For `Cc1ccc2c(=O)c3cccc(CC(=O)O)c3oc2c1C` [DMXAA, 5,6-dimethylxanthenone-4-acetic acid], the necrosis ([1]; DMXAA 60 µmol kg-1 and above co-administered with 5-HT 700 µmol kg-1, 12 h) was greater than 99%, the “threshold dose for the necrotizing effect” value ([1]; DMXAA alone i.p., 12 h) was “approximately 60 µmol kg-1” and the “doubling time of fraction of viable tissue after treatment” value ([1]; between 1 and 4 days after DMXAA 80 µmol kg-1) was 1.0 days. The “predicted growth delay (from regrowth of residual viable tissue)” value ([2]; mouse, in vivo) was 6.0 days and 5.8 days, the “time to maximal tumour blood flow inhibition” value ([3]; DMXAA 20 µmol kg-1 co-administered with 5-HT 700 µmol kg-1) was no more than 1 h and the “DMXAA dose giving 50% inhibition of tumour blood flow” value ([3]; DMXAA alone i.p., 4 h after administration) was 60 µmol/kg. For the same compound, the “time course of tumour blood flow inhibition” value [3] was “progressive inhibition over 4 h with no recovery by 24 h”.
For `NCCc1c[nH]c2ccc(O)cc12` [5-HT, 5-hydroxytryptamine], the “dose-modifying factor (DMF) for necrosis (DMXAA dose for 50% reduction of viable tissue)” value ([1]; 5-HT 700 µmol kg-1 co-administered with DMXAA, at 12 h) was 2.3, the necrotic fraction ([1]; 5-HT alone 700 µmol kg-1, 12 h (control 8.8%)) was 38% and the “dose-modifying factor (DMF) for growth delay (DMXAA dose for 5-day growth delay)” value ([2]; 5-HT 700 µmol kg-1 co-administered with DMXAA) was 2.0. For the same compound, the “Tumour growth delay, Expt 2” value ([2]; single agent i.p.: bioreductive drug at its MTD, DMXAA 80 µmol kg-1, 5-HT 700 µmol kg-1, mean ± s.e.m.) was -2.9 + 0.7 days, the “dose-modifying factor (DMF) for blood flow inhibition by DMXAA” value ([3]; 5-HT 700 µmol kg-1 co-administered with DMXAA, at 4 h) was greater than 3 and the “effect on tumour blood flow at 4 h” value ([3]; 5-HT alone 700 µmol kg-1 i.p.) was “little effect”. For the same compound, the “time course of tumour blood flow inhibition” value [3] was “weak and transient inhibition”.
For `Nc1n[n+]([O-])c2ccccc2[n+]1[O-]` [TIRA, tirapazamine], the “DMF relative to DMXAA alone (5-day growth delay)” value ([2]; mouse, in vivo) was 2.6, the “factor lowering the DMXAA dose required for a 5-day growth delay” value ([2]; mouse, in vivo) was 1.8 and the “Tumour growth delay (one experiment only, column not discernible)” value ([2]; mouse, in vivo, ip) was 2.7 ± 1.4 days.
